According to patent publication US10675244B2, “Microvesicles derived from nucleated, mammalian cells and use thereof” (MDIMUNE INC., priority 2009, dated 2020):

Columns and labels:
[1] = White blood cell count in blood of treated mice; format: in vivo; settings: 60 μg of doxorubicin daily
Protocol: Mice were anesthetized by abdominal injection of 150 μL of an anesthetic comprising a mixture of 1:3:6 ketamine:rumpon:PBS, and blood samples were taken from the heart and placed in tubes containing an anti-coagulant agent. A mixture of 10 μL of blood and 90 μL of 1% HCl was stored at room temperature for 7 min, and after 10 μL of the mixture was put into a hematocytometer, and white cells were counted.

Mouse colon 26 cell line = assay: Growth of colon 26 cancer tissue, comparison with doxorubicin (Example 21); format: in vivo, mice
Protocol: The mouse colon 26 cell line used in Example 18 was subcutaneously injected at a dose of 1×10^6 cells into mice and cultured for 5 days.
After cultivation for 5 days, PBS, PBS containing 10 μg of the extruded microvesicles loaded with 3 μg of doxorubicin (doxorubicin-microvesicle), or PBS containing 3, 15 or 60 μg of doxorubicin was injected at a dose of 100 μl once every day via the tail vein into mouse groups, each consisting of 5. The volume of cancer tissue was monitored once every two days. The tumor volume was calculated by the equation v=1s^2/2 wherein (1) is a length of the longest axis of a tumor and (s) is a length of the axis perpendicular to the longest axis.

[2] = 6 hours after tail vein injection; 100 μg microvesicles or 30 μg doxorubicin
Protocol: After cultivation for 10 days, PBS, PBS containing 100 μg of the extruded microvesicles (doxorubicin-microvesicle), or PBS containing 30 μg of doxorubicin was injected at a dose of 100 μl into mice via the tail vein.
Six hours after the injection, cancer tissue, the spleen and the heart were excised from the mice and fixed for 24 hours in 4% paraformaldehyde. For dehydration, the fixed tissues were immersed once in 70% ethanol, four times in 95% ethanol, three times in 100% ethanol, and three times in 100% xylene, each time for one hour in all cases. Thereafter, the tissues were embedded in paraffin, cut into sections 4 μm thick, and attached onto slide glass. The paraffin was melted by incubation at 60° C. for one hour. For hydration, the tissues were immersed three times in 100% xylene, four times in 100% ethanol, and three times in 95% ethanol, each time for one min in all cases, followed by storage for 5 min in flowing water.
After the hydration, the tissues were subjected to immunohistochemistry to examine whether doxorubicin was delivered to each tissue. In this regard, antigen retrieval was performed using a microwave method. The tissues were placed in 10 mM sodium citrate buffer and irradiated three times, each for five min, with microwaves. The tissues were cooled in flowing water and blocked for 2 hours with TBS containing 5% horse serum and 0.02% Triton X-100. […]

In the case of `COc1cccc2c1C(=O)c1c(O)c3c(c(O)c1C2=O)C[C@@](O)(C(=O)CO)C[C@@H]3O[C@H]1C[C@H](N)[C@H](O)[C@H](C)O1` [doxorubicin], the “reduction of white blood cell count compared to the control” value [1] is reported as “at least 50%”, the “equi-effective doxorubicin dose relative to the load of doxorubicin on the microvesicles” value (Mouse colon 26 cell line; 60 μg versus 3 μg load) is reported as 20 fold and the “dose of doxorubicin alone with the same therapeutic effect as the doxorubicin-loaded microvesicles” value (Mouse colon 26 cell line; daily tail vein injection, colon 26 tumor) is reported as 60 µg. For the same compound, the “doxorubicin delivered to the heart” value [2] was “delivered in a large amount to the heart” and the “doxorubicin in cancer blood vessels” value [2] was “cannot by itself be delivered”.
